Data from patent publication US20130324405A1, “NEW ANTIFUNGAL COMPOSITIONS” (DSM IP ASSETS B.V., priority 2011, published 2013).
Where “and” joins values, the source holds several entries; their conditions need not be identical. Equal entries are not always repeated.

Legend:
Fusarium proliferatum [1] = experiment: Treatment of wounded, inoculated bananas with antifungal compositions (mould growth); assay type: in vivo
Procedure: Four organic, unripe (green) bananas were used per treatment. The peel of each banana was wounded thrice using a cork borer according to the method described by de Lapeyre de Bellaire and Dubois (1987). Subsequently, each wound was inoculated with 15 μl of a Fusarium proliferatum suspension containing 1×10^5 of spores/ml. […] In addition, the antifungal compositions comprised 1.00% (w/w) methylhydroxyethylcellulose (MHEC), 0.40% (w/w) xanthan gum, 0.20% (w/w) anti-foaming agent, 0.30% (w/w) citric acid, 0.39% (w/w) lactic acid and 0.11% (w/w) potassium sorbate. The pH of the composition was 4.
The treated, unripe bananas were incubated in a closed box in the dark at 20° C. and a relative air humidity of 95%, which was obtained in the presence of a saturated Na2HPO4 aqueous solution. A ripe (yellow) banana was included in the closed box to elevate the ethylene gas level and thus induce ripening of the treated, unripe bananas.
The expected antifungal activity (E in %) of the combined antifungal composition comprising both active ingredients was calculated according to the Colby equation (Colby, 1967): […]
(§1) wherein X and Y are the observed antifungal activities (in %) of the individual active ingredients X and Y, respectively. If the observed antifungal activity (O in %) of the combination exceeds the expected antifungal activity (E in %) of the combination and the synergy factor O/E is thus >1.0, the combined application of the active ingredients leads to a synergistic antifungal effect.

Botrytis cinerea [2] = experiment: Treatment of wounded, inoculated strawberries by dipping in antifungal compositions (mould growth); assay type: in vivo; settings: for Observed antifungal activity O (%): strawberries
Procedure: Twelve fresh, organic strawberries were used per treatment. Each strawberry was wounded with a 0.5 mm long cut and each wound was inoculated with 10 μl of a Botrytis cinerea suspension containing 1×10^5 of spores/ml. […] The antifungal composition also comprised 1.00% (w/w) methylhydroxyethylcellulose (MHEC), 0.40% (w/w) xanthan gum, 0.20% (w/w) anti-foaming agent, 0.30% (w/w) citric acid, 0.39% (w/w) lactic acid and 0.11% (w/w) potassium sorbate. The pH of the composition was 4.
The treated strawberries were incubated in a closed box in the dark at 20° C. […]. […] The expected antifungal activity (E in %) of the combined antifungal composition comprising both active ingredients was calculated according to the Colby equation (Colby, 1967): […]
as §1
The treated strawberries were assessed on mould growth after 3, 4, 5, 7, 8 and 9 days of incubation according to the two methods described in Example 6.

Botrytis cinerea [3] = experiment: In vitro antifungal activity, 96-well microtiter plates; assay type: cell-based; settings: 0.63 ppm natamycin, 25 ppm cyazofamid, 50 ppm fenamidone, or natamycin plus one of these, 7 days at 25° C.
Procedure: Subsequently, 100 μl of a Botrytis cinerea suspension prepared in PCB medium was used to inoculated each well with 2.5×10^3spores/ml. […] The expected antifungal activity (E in %) of the active ingredient combination was calculated according to the Colby equation (Colby, 1967): […] wherein X and Y are the observed antifungal activities (in %) of the individual active ingredients X and Y, respectively.

Fusarium proliferatum [4] = experiment: as above; assay type: cell-based; settings: 5 days at 25° C.
Procedure: Subsequently, 100 μl of a Botrytis cinerea suspension prepared in PCB medium was used to inoculated each well with 2.5×10^3spores/ml.
After incubation of the microtiter plates for 7 at 25° C., the in vitro antifungal activity (%) of the individual active ingredients was assessed by calculating the reduction in mould growth observed in the presence of the active ingredient in comparison to the mould growth observed in the absence of the active ingredient. The expected antifungal activity (E in %) of the active ingredient combination was calculated according to the Colby equation (Colby, 1967): […]
as §1, with “and the resulting synergy factor” for “and the synergy factor”
Furthermore, Fusarium proliferatum was used for inoculation.

[5] = 250 ppm natamycin, 500 ppm cyazofamid or both, 27 days at 20° C.
[6] = 500 ppm natamycin, 2000 ppm cyazofamid or both, 21 days at 20° C.
[7] = 500 ppm natamycin, 2000 ppm cyazofamid or both, 23 days at 20° C.
[8] = 500 ppm natamycin, 2000 ppm cyazofamid or both, 24 days at 20° C.
[9] = 50 ppm natamycin, 250 ppm fenamidone or both, Day 3 at 20° C.
[10] = 50 ppm natamycin, 250 ppm fenamidone or both, Day 4 at 20° C.
[11] = 50 ppm natamycin, 250 ppm fenamidone or both, Day 5 at 20° C.
[12] = 500 ppm natamycin, 1000 ppm fenamidone or both, Day 3 at 20° C.
[13] = 500 ppm natamycin, 1000 ppm fenamidone or both, Day 5 at 20° C.
[14] = 50 ppm natamycin, 250 ppm fenamidone or both, 3 days at 20° C.
[15] = 50 ppm natamycin, 250 ppm fenamidone or both, 4 days at 20° C.
[16] = 50 ppm natamycin, 250 ppm fenamidone or both, 5 days at 20° C.
[17] = 50 ppm natamycin, 250 ppm fenamidone or both, 7 days at 20° C.
[18] = 50 ppm natamycin, 250 ppm fenamidone or both, 8 days at 20° C.
[19] = 50 ppm natamycin, 250 ppm fenamidone or both, 9 days at 20° C.
[20] = 500 ppm natamycin, 1000 ppm fenamidone or both, 3 days at 20° C.
[21] = 500 ppm natamycin, 1000 ppm fenamidone or both, 4 days at 20° C.
[22] = 500 ppm natamycin, 1000 ppm fenamidone or both, 5 days at 20° C.
[23] = 500 ppm natamycin, 1000 ppm fenamidone or both, 7 days at 20° C.
[24] = 500 ppm natamycin, 1000 ppm fenamidone or both, 8 days at 20° C.
[25] = 500 ppm natamycin, 1000 ppm fenamidone or both, 9 days at 20° C.
[26] = 2.5 ppm natamycin, 50 ppm cyazofamid or both

Q: What does the source list for `C[C@@H]1C/C=C/C=C/C=C/C=C/[C@H](O[C@@H]2O[C@H](C)[C@@H](O)[C@H](N)[C@@H]2O)C[C@@H]2O[C@](O)(C[C@@H](O)C[C@H]3O[C@@H]3/C=C/C(=O)O1)C[C@H](O)[C@H]2C(=O)O` [Natamycin, natamycin]?
A: Observed antifungal activity O (%) (Fusarium proliferatum [1]; [5]): 4%; Observed antifungal activity O (%) (Fusarium proliferatum [1]; [6]): 94%; Observed antifungal activity O (%) (Fusarium proliferatum [1]; [7]): 86%; Observed antifungal activity O (%) (Fusarium proliferatum [1]; [8]): 84%; Number of moulded strawberries/total number of 12 strawberries (Botrytis cinerea [2]; [9]): 3 and 3/12; Number of moulded strawberries/total number of 12 strawberries (Botrytis cinerea [2]; [10]): 5 and 5/12; Number of moulded strawberries/total number of 12 strawberries (Botrytis cinerea [2]; [11]): 10 and 10/12; Number of moulded strawberries/total number of 12 strawberries (Botrytis cinerea [2]; [12]): 3 and 3/12; Number of moulded strawberries/total number of 12 strawberries (Botrytis cinerea [2]; [13]): 11 and 11/12; Observed antifungal activity O (%) (Botrytis cinerea [2]; [14]): 64%; Observed antifungal activity O (%) (Botrytis cinerea [2]; [15]): 50%; Observed antifungal activity O (%) (Botrytis cinerea [2]; [16]): 17%; Observed antifungal activity O (%) (Botrytis cinerea [2]; [17]): 17%; Observed antifungal activity O (%) (Botrytis cinerea [2]; [18]): 10%; Observed antifungal activity O (%) (Botrytis cinerea [2]; [19]): 0%; Observed antifungal activity O (%) (Botrytis cinerea [2]; [20]): 75%; Observed antifungal activity O (%) (Botrytis cinerea [2]; [21]): 69%; Observed antifungal activity O (%) (Botrytis cinerea [2]; [22]): 31%; Observed antifungal activity O (%) (Botrytis cinerea [2]; [23]): 13%; Observed antifungal activity O (%) (Botrytis cinerea [2]; [24]): 0%; Observed antifungal activity O (%) (Botrytis cinerea [2]; [25]): 0%; Observed antifungal activity O (%) (Botrytis cinerea [3]): 0%; Observed antifungal activity O (%) (Fusarium proliferatum [4]; [26]): 0%

Q: With `Cc1ccc(-c2c(Cl)nc(C#N)n2S(=O)(=O)N(C)C)cc1` [Cyazofamid, cyazofamid] as the molecule, how does the “Observed antifungal activity O (%)” value (Fusarium proliferatum [1]; 50 ppm natamycin, 250 ppm cyazofamid or both, 27 days at 20° C.) read?
A: The value was 0%.

Q: And the “Observed antifungal activity O (%)” value (Fusarium proliferatum [1]; [5])?
A: The value was 1%.

Q: What about the “Observed antifungal activity O (%)” value (Fusarium proliferatum [1]; [6]) of the same molecule?
A: The value was 0%.

Q: What about the “Observed antifungal activity O (%)” value (Fusarium proliferatum [1]; [7]) of the same molecule?
A: Its value is 0%.

Q: And the “Observed antifungal activity O (%)” value (Fusarium proliferatum [1]; [8])?
A: The value was 0%.

Q: What about the “Observed antifungal activity O (%)” value (Botrytis cinerea [3]) of the same molecule?
A: Its value is 0%.

Q: And the “Observed antifungal activity O (%)” value (Fusarium proliferatum [4]; [26])?
A: The value was 0%.

Q: What about the “Observed antifungal activity O (%)” value (Fusarium proliferatum [4]; 75 ppm cyazofamid alone or with 2.5 ppm natamycin) of the same molecule?
A: The value was 0%.

Q: Which results are given for `CSC1=N[C@@](C)(c2ccccc2)C(=O)N1Nc1ccccc1` [Fenamidone, fenamidone]?
A: Number of moulded strawberries/total number of 12 strawberries (Botrytis cinerea [2]; [9]): 12 and 12/12; Number of moulded strawberries/total number of 12 strawberries (Botrytis cinerea [2]; [10]): 12 and 12/12; Number of moulded strawberries/total number of 12 strawberries (Botrytis cinerea [2]; [11]): 12 and 12/12; Number of moulded strawberries/total number of 12 strawberries (Botrytis cinerea [2]; [12]): 12 and 12/12; Number of moulded strawberries/total number of 12 strawberries (Botrytis cinerea [2]; [13]): 12 and 12/12; Observed antifungal activity O (%) (Botrytis cinerea [2]; [14]): 0%; Observed antifungal activity O (%) (Botrytis cinerea [2]; [15]): 0%; Observed antifungal activity O (%) (Botrytis cinerea [2]; [16]): 0%; Observed antifungal activity O (%) (Botrytis cinerea [2]; [17]): 0%; Observed antifungal activity O (%) (Botrytis cinerea [2]; [18]): 0%; Observed antifungal activity O (%) (Botrytis cinerea [2]; [19]): 0%; Observed antifungal activity O (%) (Botrytis cinerea [2]; [20]): 9%; Observed antifungal activity O (%) (Botrytis cinerea [2]; [21]): 0%; Observed antifungal activity O (%) (Botrytis cinerea [2]; [22]): 0%; Observed antifungal activity O (%) (Botrytis cinerea [2]; [23]): 0%; Observed antifungal activity O (%) (Botrytis cinerea [2]; [24]): 0%; Observed antifungal activity O (%) (Botrytis cinerea [2]; [25]): 0%; Observed antifungal activity O (%) (Botrytis cinerea [3]): 0%
